# Results: patent US9102669B2, “Substituted piperidinyl-pyridazinyl derivatives useful as SCD 1 inhibitors” (Janssen Pharmaceutica NV, priority 2011, dated 2015)
# “And” between values parts separate entries of the source, which are not always exact repeats. Equal values may be shown once.
# What was measured:
# [1] = target: SCD1 (Rattus norvegicus (Rat), UniProt P07308); assay: SCD1 enzymatic assay in rat liver microsomes (RLM); assay type: biochemical; settings: rat liver microsomes; for inhibition at 1 µM / % Inh.@ 1 μM: 1 μM test compound; for inhibition at 1 µM: read-out: % Inh.@ 1 μM
# Procedure: Step 1: Preparation of Rat Liver Microsome (RLM):
# Sprague Dawley rats from Charles River (200-225 g) underwent 2-cycle of fast-re-feeding (24-hour fast followed by 24-hour feeding with fat-free high carbohydrate diet, Reseach Diet, D00042802). The livers were removed and homogenized 1:4 (w/v) with pre-chilled, homogenizing buffer (10 mM Tris-HCl, 0.25 M sucrose, 1 mM EDTA, pH 7.4, supplemented with protease inhibitor cocktail). The homogenate was spun at 12,000×g for 15 min at 4° C. The supernatant was then re-centrifuged at 100,000×g for 60 min at 4° C. The pellet was re-suspended in 2 ml pre-chilled […] potassium phosphate buffer, pH 7.2, 10 mM EDTA at a concentration of 20 mg/ml. The resulting rat liver microsome (RLM) preparation was stored at −80° C.
# Step 2: SCD1 Enzymatic Assay in RLM:
# The SCD1 enzymatic assay was done in a volume of 50 μL using 10 μg of RLM (prepared as described above) in a 96-well polypropylene plate (enzyme reaction buffer contains 0.1 M K-Phosphate Buffer, 10 mM ATP, 6 mM MgCl2. 1 mM CoA, 1 mM β-NADH, 1.6 mM L-glutathione, 20 μM Stearoyl-CoA). Stearoyl-[9,10-^3H]-CoA (ARC-0390, 1 mCi/mL, 60 Ci/mmol,) was added at a final concentration of 2 μCi/mL. Test compound was then added to the reaction mixture at the selected concentration. After incubation at room temperature for 2 hours, 5 μL 1 N HCl was added to stop the reaction, followed by addition of 25 μL of 10% charcoal. The reaction mixture was then transferred to 96-well Multiscreen plate (Millipore, Cat#MSFCN6B50). […] The measured cpm values were fitted with Sigmoidal dose-response curve fit with Graphpad Prism.
# [2] = target: SCD1 (Homo sapiens (Human), UniProt O00767); assay: SCD1 13C-palmitic acid assay in A431 cells; assay type: cell-based; settings: read-out: A431 cells 13C-PA IC50
# Procedure: Human epithelial carcinoma A431 cells were seeded at 100,000 cells/well in complete growth medium (DMEM, Cellgro#10-013-CM, 4.5 g/L glucose, 10% FBS) in the presence of 0.05 mg/mL human insulin (Hannas Pharmaceutical Supply Co Inc, Humanlin 100 U/ml, 4 mg/ml) in 96-well tissue culture plate. 24 hr later, the cells were washed extensively with Assay Buffer (DMEM, Cellgro#10-013-CM, 4.5 g/L glucose, supplemented with 0.05 mg/mL Human Insulin and 0.1% Fatty Acid Free BSA). […] The cells were then returned to the tissue culture incubator (37° C. and 5% CO2) for 4 hrs. At the end of incubation, the cells were washed three times with 200 μL/well Hanks buffer (HBSS) and then stored at −20° C. until extraction.
# For fatty acid extraction, after thawing out the plates, 40 μL of 1N KOH (containing 5 μM of internal standard 7,7,8,8-D4 palmitate) was added to each well and cell plates were incubated at 37° C. for 30 minutes. […] Acetonitrile (100 μL) was then added to extract fatty acids, followed by centrifugation at 3000 rpm for 10 minutes. 75 μL of extract was then transferred to a new glass vial in a 96-well cluster plate. 5 μL was injected for LC/MS analysis for detection of ^13C-palmitic acid and ^13C-palmitoleic acid. Formation of product ^13C-palmitoleic acid was determined as an index of SCD1 activity.
# LC/MS analysis was performed as following. An Agilent 1100 Liquid Chromatographic System (Palo Alto, Calif.) consisting of a binary pump, a degasser and an autosampler was used. Separation of free fatty acids was performed on a Zorbax SB-C8 column (2.1×50 mm, particle size=3.5 μm). An isocratic elution was carried out with 10 mM triethylamine acetate in water: acetonitrile (3:7) at a flow rate of 0.3 mL/min. The column temperature was set at 30° C. and the sample injection volume was 5 μL. The LC run cycle was 4 min. A Micromass triple-quadrupole Quattro Micro mass […] (Waters, Beverly, Mass.) was interfaced with the LC system through a Z-spray electrospray ion source and was operated in the negative ion mode. Nitrogen was used as nebulizing gas, desolvation gas and cone curtain gas and argon was chosen as collision gas. The triple quadrupole MS source parameters were set as follows: capillary voltage, 3200V; cone voltage, 25V; exctractor 2V; source temperature, 120° C.; desolvation temperature, 300° C.; cone gas flow, 50 L/h; and desolvation gas flow, 700 L/h. […] MassLynx software version 4.0 was used for system control and data processing. The signal of U-^13C-palmitoleic acid was normalized to an internal standard.
# Chain of SCD1 (Homo sapiens (Human), UniProt O00767) (O00767 whole entry): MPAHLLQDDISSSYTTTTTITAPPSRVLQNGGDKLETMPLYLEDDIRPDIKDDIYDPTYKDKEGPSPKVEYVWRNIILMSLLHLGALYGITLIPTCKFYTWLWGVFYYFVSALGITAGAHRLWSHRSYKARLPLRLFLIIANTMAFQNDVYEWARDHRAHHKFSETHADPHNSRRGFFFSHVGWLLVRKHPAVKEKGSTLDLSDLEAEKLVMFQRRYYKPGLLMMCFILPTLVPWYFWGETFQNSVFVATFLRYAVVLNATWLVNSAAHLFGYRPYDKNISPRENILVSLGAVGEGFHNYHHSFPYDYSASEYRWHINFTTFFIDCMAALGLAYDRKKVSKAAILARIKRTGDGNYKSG
# Chain of SCD1 (Rattus norvegicus (Rat), UniProt P07308) (P07308 whole entry): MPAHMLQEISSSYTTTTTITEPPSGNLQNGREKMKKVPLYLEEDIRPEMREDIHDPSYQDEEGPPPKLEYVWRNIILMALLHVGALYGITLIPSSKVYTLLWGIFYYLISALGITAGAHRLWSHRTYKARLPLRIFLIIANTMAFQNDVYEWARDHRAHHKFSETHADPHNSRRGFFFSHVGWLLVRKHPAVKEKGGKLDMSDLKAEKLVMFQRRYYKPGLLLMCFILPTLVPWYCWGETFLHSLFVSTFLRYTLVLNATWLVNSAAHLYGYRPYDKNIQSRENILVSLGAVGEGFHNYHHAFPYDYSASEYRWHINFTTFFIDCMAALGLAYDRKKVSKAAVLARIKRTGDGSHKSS
inhibition at 1 µM [1],IC50 [1],IC50 [2],% Inh.@ 1 μM [1],SMILES
68%,387 nM,559 nM,,"NC(=O)Cn1cc(-c2ccc(N3CCC(N4CCc5ccc(F)cc54)CC3)nn2)cn1 [compound 69, 2-(4-(6-(4-(6-fluoroindolin-1-yl)piperidin-1-yl)pyridazin-3-yl)-1H-pyrazol-1-yl)acetamide]"
94%,68 nM,82 nM,,"Cn1cc(-c2ccc(N3CCC(n4ncc5c(F)cccc54)CC3)nn2)cn1 [compound 70, 4-fluoro-1-(1-(6-(1-methyl-1H-pyrazol-4-yl)pyridazin-3-yl)piperidin-4-yl)-1H-indazole]"
96%,16 nM,22 nM,,"Cn1cc(-c2ccc(N3CCC(n4ncc5ccc(Cl)cc54)CC3)nn2)cn1 [compound 74, 6-chloro-1-(1-(6-(1-methyl-1H-pyrazol-4-yl)pyridazin-3-yl)piperidin-4-yl)-1H-indazole]"
98%,8 nM,22 nM,,"COCc1cnn(-c2ccc(N3CCC(c4noc5ccc(F)cc45)CC3)nn2)c1 [compound 96, 5-fluoro-3-(1-(6-(4-(methoxymethyl)-1H-pyrazol-1-yl)pyridazin-3-yl)piperidin-4-yl)benzo[d]isoxazole]"
41%,,,,"Cc1nccn1-c1ccc(N2CCC(c3noc4ccc(F)cc34)CC2)nn1 [compound 93, 5-fluoro-3-(1-(6-(2-methyl-1H-imidazol-1-yl)pyridazin-3-yl)piperidin-4-yl)benzo[d]isoxazole]"
28%,> 1000 nM,,,"NC(=O)c1ccc(-c2ccc(N3CCC(N4CCc5ccc(F)cc54)CC3)nn2)cc1 [compound 56, 4-(6-(4-(6-fluoroindolin-1-yl)piperidin-1-yl)pyridazin-3-yl)benzamide]"
32%,> 1000 nM,,,"Cn1cc(-c2ccc(N3CCC(N4CCc5c(Cl)cccc54)CC3)nn2)cn1 [compound 67, 4-chloro-1-(1-(6-(1-methyl-1H-pyrazol-4-yl)pyridazin-3-yl)piperidin-4-yl)indoline]"
34%,,,,"Cn1cc(-c2ccc(N3CCC(N4CCc5c(Cl)cc(Cl)cc54)CC3)nn2)cn1 [compound 68, 4,6-dichloro-1-(1-(6-(1-methyl-1H-pyrazol-4-yl)pyridazin-3-yl)piperidin-4-yl)indoline]"
45%,,,,"Fc1ccc2onc(C3CCN(c4ccc(-n5cccn5)nn4)CC3)c2c1 [compound 87, 3-(1-(6-(1H-pyrazol-1-yl)pyridazin-3-yl)piperidin-4-yl)-5-fluorobenzo[d]isoxazole]"
29%,,,,"Cc1cn(-c2ccc(N3CCC(N4CCCc5ccccc54)CC3)nn2)cn1 [compound 90, 1-(1-(6-(4-methyl-1H-imidazol-1-yl)pyridazin-3-yl)piperidin-4-yl)-1,2,3,4-tetrahydroquinoline]"

# The next lines start with the compound.
SMILES,inhibition at 1 µM [1],IC50 [1],IC50 [2],% Inh.@ 1 μM [1]
"Cn1cc(-c2ccc(N3CCC(n4c(C(F)(F)F)nc5ccccc54)CC3)nn2)cn1 [compound 41, 1-(1-(6-(1-methyl-1H-pyrazol-4-yl)pyridazin-3-yl)piperidin-4-yl)-2-(trifiuoromethyl)-1H-benzo[d]imidazole]",38%,> 1000 nM,,
"CC(=O)NNC(=O)c1ccc(N2CCC(c3noc4ccc(F)cc34)CC2)nn1 [Compound I2, N′-acetyl-6-(4-(5-fluorobenzo[d]isoxazol-3-yl)piperidin-1-yl)pyridazine-3-carbohydrazide]",27%,,,
"COc1ncc(-c2ccc(N3CCC(N4CCc5ccc(F)cc54)CC3)nn2)cn1 [compound 38, 6-fluoro-1-(1-(6-(2-methoxypyrimidin-5-yl)pyridazin-3-yl)piperidin-4-yl)indoline]",97%,11 nM,34 nM,
"COc1ccc2c(c1)N(C1CCN(c3ccc(-c4cnn(C)c4)nn3)CC1)CC2 [Compound #62, 6-methoxy-1-(1-(6-(1-methyl-1H-pyrazol-4-yl)pyridazin-3-yl)piperidin-4-yl)indoline]",79%,317 nM,407 nM,
"Cn1cc(-c2ccc(N3CCC(n4nnc5ccccc54)CC3)nn2)cn1 [compound 48, 1-(1-(6-(1-methyl-1H-pyrazol-4-yl)pyridazin-3-yl)piperidin-4-yl)-1H-benzo[d][1,2,3]triazoie]",60%,939 nM,,
"CC(=O)Nc1ccc(-c2ccc(N3CCC(N4CCc5ccc(F)cc54)CC3)nn2)cn1 [compound 45, N-(5-(6-(4-(6-fluoroindolin-1-yl)piperidin-1-yl)pyridazin-3-yl)pyridin-2-yl)acetamide]",98%,15 nM,6 nM,
"Cn1cc(-c2ccc(N3CCC(n4ccc5ccc(F)cc54)CC3)nn2)cn1 [Compound #63, 6-fluoro-1-(1-(6-(1-methyl-1H-pyrazol-4-yl)pyridazin-3-yl)piperidin-4-yl)-1H-indole]",99%,,,
OCc1cn(-c2ccc(N3CCC(N4CCc5ccc(F)cc54)CC3)nn2)cn1 [Compound #15],101%,11 nM,3 nM,
"CCOCc1cnn(-c2ccc(N3CCC(N4CCc5ccc(F)cc54)CC3)nn2)c1 [Compound #72, 1-(1-(6-(4-(ethoxymethyl)-1H-pyrazol-1-yl)pyridazin-3-yl)piperidin-4-yl)-6-fluoroindoline]",99%,8 nM,9 nM,
"Cc1ccc(-c2ccc(N3CCC(c4noc5ccc(F)cc45)CC3)nn2)cn1 [compound 24, 5-fluoro-3-(1-(6-(6-methylpyridin-3-yl)pyridazin-3-yl)piperidin-4-yl)benzo[d]isoxazote]",98%,11 nM and 4 nM,9 nM and 6 nM,94%
"Cc1ccc(-c2ccc(N3CCC(N4CCc5ccc(F)cc54)CC3)nn2)cn1 [Compound #30, 6-fluoro-1-(1-(6-(6-methylpyridin-3-yl)pyridazin-3-yl)piperidin-4-yl)indoline]",95%,6 nM and 19 nM,2 nM and 3 nM,99%
"Cn1cc(-c2ccc(N3CCC(N4CCc5c(F)cccc54)CC3)nn2)cn1 [Compound #66, 4-fluoro-1-(1-(6-(1-methyl-1H-pyrazol-4-yl)pyridazin-3-yl)piperidin-4-yl)indoline]",57%,678 nM,,
"Cc1ccc(-c2ccc(N3CCC(c4noc5ccc(F)cc45)CC3)nn2)cc1 [compound 32, 5-fluoro-3-(1-(6-(p-tolyl)pyridazin-3-yl)piperidin-4-yl)benzo[d]isoxazole]",45%,> 1000 nM,,
"Fc1ccc(-c2ccc(N3CCC(N4CCc5ccc(F)cc54)CC3)nn2)cc1 [Compound #53, 6-fluoro-1-(1-(6-(4-fluorophenyl)pyridazin-3-yl)piperidin-4-yl)indoline]",59%,777 nM,,
"CC(C)(C)OC(=O)c1ccc(-c2ccc(N3CCC(N4CCc5ccc(F)cc54)CC3)nn2)cc1 [compound 55, tert-butyl 4-(6-(4-(6-fluoroindolin-1-yl)piperidin-1-yl)pyridazin-3-yl)benzoate]",8%,> 1000 nM,,
